Source: patent US20150216794A1, “METHODS OF TREATING PAIN ASSOCIATED WITH OSTEOARTHRITIS OF A JOINT WITH A TOPICAL FORMULATION OF A SPIRO-OXINDOLE COMPOUND” (IVAX International GmbH, priority 2014, published 2015)
Several values for one entry are separate records, joined by “and”; a condition that tells them apart may be missing. Equal values may be shown once.

Experiments:
[1] = minipig: tissue distribution of radioactivity and unchanged compound; type: in vivo, Göttingen minipig; details: for concentration at 24 h: male, Göttingen, minipig, topical, 70 mg spiro-oxindole compound equivalents ointment/kg
Source text: The following tissues/organs were removed from the remaining carcass:
The urinary bladder from each animal was rinsed with saline and the washings discarded. Each section of the gastrointestinal tract wall was washed to remove contents (which were retained for analysis) prior to analysis. Remaining carcasses were discarded.

[2] = system: complete Freund's adjuvant (CFA) model of inflammatory pain; assay: CFA model of inflammatory pain; type: in vivo, rat; details: topical, dose-response; model not restated (follows CFA paragraph)
[3] = domestic pig joint penetration study: concentration in plasma; type: in vivo; details: for concentration in plasma, individual animals: 3.0 μL/cm^2 bid
Method: This study was conducted to evaluate the joint penetration, systemic plasma exposure and tissue distribution of the spiro-oxindole compound in domestic pigs following topical administration of a pharmaceutical composition utilized in the methods of the invention. Fifteen female pigs were used in this study with three pigs in each group. Beginning on Day 1, a pharmaceutical composition of the invention was topically applied to the left radiocarpal joint (carpus) and tibiotarsal joint (hock) twice daily (bid) for 17 days (34 applications) for Groups 1-4 and once daily (qd) for 17 days (17 applications) for Group 5. Pre-dose blood samples (prior to morning dosing) was collected on Days 2, 7, 10, 14 and 17. A full pharmacokinetic sampling was performed on Day 17 (post am dosing) at the following time points: 1, 2, 4, 8 and 12 hr. On the day of necropsy, Day 18, blood was collected prior to euthanasia, each pig was humanely euthanized and dorsal skin and muscle, liver, kidney, heart, lung, brain, intestine, fat, ovaries, urinary bladder, sciatic nerve, and skin, muscle, synovial membrane, and synovial fluid from all 4 joints (2 treated, left carpus and hock, and 2 untreated, right carpus and hock) was collected.
The dose volume (μL/cm^2) for the test pharmaceutical compositions was 3.0 μL/cm^2 for Groups 1, 2, 3 and 5 and 1.0 μL/cm^2 for Group 4.
Approximately 2 mL of whole blood was collected prior to the morning dose administration on Days 2, 7, 10, 14 and 17. A full pharmacokinetic profile sampling was performed on Day 17 after the morning dose administration at the following time points: 1, 2, 4, 8 and 12 hr. On the day of necropsy, Day 18, blood was collected prior to euthanasia.

[4] = previous topical clinical studies (PHN and EM) overall; details: human, in vivo
Method: Although not previously studied in patients with osteoarthritis, a topical formulation of the spiro-oxindole compound of the invention has been tested in clinical studies and was well tolerated by patients with postherpetic neuralgia (PHN) and erythromelalgia.
In general, the maximal concentrations of the spiro-oxindole compound following topical application are determined under “maximal use conditions,” taking into consideration such factors as ointment strength, application volume, application surface area, and frequency and duration of dosing.
Nevertheless, the exposure level anticipated in this study is expected to be higher than that observed in any single patient population administered a therapeutic dose a topical pharmaceutical composition of the invention. This study is therefore intended to help in the selection of a topical dose and regimen of a topical pharmaceutical composition of the invention.

For `O=C1N(Cc2ccc(C(F)(F)F)o2)c2ccccc2[C@]12COc1cc3c(cc12)OCO3` [spiro-oxindole compound, (S)-1′-{[5-(trifluoromethyl)furan-2-yl]methyl}spiro[furo[2,3-f][1,3]benzodioxole-7,3′-indol]-2′(1′H)one], the “tissue radioactivity concentrations in the majority of tissues analysed” value ([1]; limit of quantification ca 12-25 ng equivalents spiro-oxindole compound/g) was “below the limit of quantification”, the concentration at 24 h ([1]; heart) was 17.5 ng/g and the concentration at 24 h ([1]; liver) was 11.3 ng/g. The concentration at 24 h ([1]; skin from the dose site) was 1860 ng/g, the concentration at 24 h ([1]; white fat) was 53.8 ng/g and the “dose with greatest effect (highest dose tested)” value [2] was 8 % (w/w). For the same molecule, the minimum effective dose [2] was 2 % (w/w), the “concentration in plasma, individual animals” value (“concentration in plasma” below) ([3]; G1 (#1-#3): 2% composition, Day 2 Before dosing) was 0.34 ng/mL and the “concentration in plasma” value ([3]; G1 (#1-#3): 2% composition, Day 7 Before dosing) was 0.97 ng/mL. For the same molecule, the “concentration in plasma” value ([3]; G1 (#1-#3): 2% composition, Day 10 Before dosing) was 1.54 ng/mL, the “concentration in plasma” value ([3]; G1 (#1-#3): 2% composition, Day 14 Before dosing) was 1.10 ng/mL and the “concentration in plasma” value ([3]; G1 (#1-#3): 2% composition, Day 17 1 hour after dosing) was 1.21 ng/mL. For the same molecule, the “concentration in plasma” value ([3]; G1 (#1-#3): 2% composition, Day 17 2 hour after dosing) was 1.07 ng/mL, the “concentration in plasma” value ([3]; G1 (#1-#3): 2% composition, Day 17 4 hour after dosing) was 1.04 ng/mL and the “concentration in plasma” value ([3]; G1 (#1-#3): 2% composition, Day 17 8 hour after dosing) was 1.30 ng/mL. For the same molecule, the “concentration in plasma” value ([3]; G1 (#1-#3): 2% composition, Day 17 12 hour after dosing) was 11.38 ng/mL, the “concentration in plasma” value ([3]; G1 (#1-#3): 2% composition, Day 17 Before dosing) was 2.70 ng/mL and the “concentration in plasma” value ([3]; G1 (#1-#3): 2% composition, Day 18) was 1.60 ng/mL. The “concentration in plasma” value ([3]; G2 (#4-#6): 4% composition, Day 2 Before dosing) was 0.84 ng/mL and 0.86 ng/mL, the “concentration in plasma” value ([3]; G2 (#4-#6): 4% composition, Day 7 Before dosing) was 1.73 ng/mL and the “concentration in plasma” value ([3]; G2 (#4-#6): 4% composition, Day 10 Before dosing) was 1.79 ng/mL. For the same molecule, the “concentration in plasma” value ([3]; G2 (#4-#6): 4% composition, Day 14 Before dosing) was 2.47 ng/mL, the “concentration in plasma” value ([3]; G2 (#4-#6): 4% composition, Day 17 1 hour after dosing) was 2.47 ng/mL and the “concentration in plasma” value ([3]; G2 (#4-#6): 4% composition, Day 17 2 hour after dosing) was 3.47 ng/mL. The “concentration in plasma” value ([3]; G2 (#4-#6): 4% composition, Day 17 4 hour after dosing) was 2.72 ng/mL, the “concentration in plasma” value ([3]; G2 (#4-#6): 4% composition, Day 17 8 hour after dosing) was 1.94 ng/mL and the “concentration in plasma” value ([3]; G2 (#4-#6): 4% composition, Day 17 12 hour after dosing) was 12.17 ng/mL and 15.72 ng/mL. The “concentration in plasma” value ([3]; G2 (#4-#6): 4% composition, Day 17 Before dosing) was 3.25 ng/mL, the “concentration in plasma” value ([3]; G2 (#4-#6): 4% composition, Day 18) was 5.41 ng/mL and 2.83 ng/mL and the “plasma concentration / systemic exposure (in words)” value ([3]; domestic pig, topical administration to a joint) was “nanomolar”. For the same molecule, the “highest observed individual plasma concentration” value [4] was 14.5 ng/mL.
